Data as given in patent publication US20200290950A1, “ALKAMIDE COMPOUNDS AND USES THEREOF” (NORTH CAROLINA STATE UNIVERSITY, priority 2017, published 2020).

Columns and labels:
[1] = system: RBL-2H3 cells; assay: Fluo-4 calcium assay, RBL-2H3 cells (Example 1); format: cell-based, rat
Protocol: FIGS. 3A-3H. A15 inhibits calcium influx in RBL-2H3 cells and BMMCs. RBL-2H3 cells (FIGS. 3A-3D) and BMMCs (FIGS. 3E-3H) were plated and incubated overnight prior to treatments. For DNP-BSA treatments, overnight incubation also included 1 μg/mL IgE anti-DNP. Prior to stimulation, cells were washed and loaded with the fluorescent, calcium-sensitive dye fluo-4 AM using the Fluo-4 AM Direct™ Calcium Assay Kit and fluorescence was measured on a microplate reader. Calcium influx was triggered in all experiments using either 1 μM A23187 or 50 ng/mL DNP-BSA, as indicated. Bar graphs represent the means±SEM of the Δ in RFU's at 1 min post-A23187- or DNP-BSA-stimulation from 3 independent experiments (FIGS. 3B, 3D, 3F, 3H). Statistical analysis was performed using a one-way ANOVA with Dunnett's post-hoc test, *p<0.05, **p<0.01, ***p<0.001.
FIG. 9. A15 inhibits calcium influx in RBL-2H3 cells. Prior to stimulation, cells were washed and loaded with the fluorescent, calcium-sensitive dye fluo-4 AM using the Fluo-4 AM Direct™ Calcium Assay Kit. Cells were treated with 100 μM A15 (D, E, F), 0.25% ethanol only (vehicle) (A, B, C), 1 μM A23187 (G, H, I), and 100 μM A15 in combination with 1 μM A23187 (J, K, L) as indicated. Images were acquired at 30, 60, and 120 seconds, post-stimulation. Images are representative of several experiments.
RBL-2H3, BMMC, RAW 264.7, or Jurkat cells were plated in clear-bottom, black, 96-well plates (BioExpress, Kaysville, Utah) and incubated overnight with media only or media containing IgE anti-DNP. Cells were loaded with the calcium-sensitive dye fluo-4 AM using the Fluo-4 Direct™ Calcium Assay Kit (Thermo Fisher Scientific) according to the manufacturer's instructions by incubating at 37° C. for 30 min followed by 30 min at room temperature. Prior to stimulation, baseline fluorescent readings were measured from triplicate wells in 5 s intervals for 1 min using a Synergy HT microplate reader with 485/20 nm excitation and 528/20 nm emission filters. Cells were then treated with either 1 μM A23187 or 50 ng/mL DNP-BSA prepared in calcium- and magnesium-containing or calcium- and magnesium-free HBSS with 20 mM HEPES, and fluorescence was measured in 10 s intervals for 2 min. The final concentration of ethanol was 0.25% in these assays. The average baseline fluorescence of each well was subtracted from the stimulated fluorescent values to calculate the change (Δ) in RFU's and graphed as shown.
Cells loaded with fluo-4 were treated and observed with an Axioskop 2 microscope (Zeiss, Oberkochen, Germany) using a fluorescent illuminator HXP-120 light source and images were acquired at 30, 60, or 120 sec after stimulation with a AxioCam MRc5 camera (Zeiss) and AxioVision software (Zeiss).

[2] = Paw withdrawal latency to heat, cold and touch after topical administration; format: in vivo; conditions: topical in mineral oil on mouse paws
Protocol: FIG. 12. Antinociceptive effect of topical administration of alkamide A15. Measured paw withdrawal latency to Hargreave's (A) cold assay using dry ice (B) and touch using von-Frey (C). Data were analyzed using parametric evaluation (AUC).
(§1) Several different model systems were utilized for these experiments. In one model, dorsal root ganglia were obtained from mice and the neurons cultured in vitro. The neurons were then stimulated in the presence/absence of A15 and YM8-85 and the calcium responses monitored by fluorescence microscopy. In the second model, the alkamides were applied to mouse skin in mineral oil. The reactions of these mice to heat, cold, and tactile stimulation was then compared with mice that had not received treatment with A15. In a third model, mice were sensitized to the chemical compound toluene-2,4-diisocyanate (TDI). TDI is an industrial chemical which causes hypersensitive skin lesions and itching in exposed humans and animals. The physiological response to TDI is complex involving type 2 T lymphocytes, cytokines, mast cells, and neurons. Alkamides were applied to sensitized animals and then ear swelling and bouts of scratching were monitored.
In vivo responses to painful stimuli. A15 was tested with mice to determine whether the in vitro inhibitory responses noted in FIG. 11 are also seen in vivo. A15 was mixed in mineral oil and added to mouse paws prior to stimulation with heat, cold, or touch. […] Sensations of touch are mediated by distinct families of mechanoreceptors which are apparently unaffected by A15.

[3] = biological target: T1, TRPV1 (Mus musculus, UniProt Q704Y3); assay: Calcium response of DRG neurons to capsaicin; format: cell-based; conditions: cultured DRG neurons, fluorescence microscopy
T1 construct: The receptors TRPA1 and TRPV1 are expressed on neurons; from tissue; host or cells: primary dorsal root ganglion neurons from mice
From the text: FIG. 11. Calcium response from DRG sensory neurons to alkamide of transient receptors. Mustard a TRPA1-receptor agonist activates DRG neurons in gray (A) and capsaicin, an agonist for TRPV1-receptors in the DRG neurons in red (B). Ligand A15 inhibits both TRPA1 and TRPV1 receptors activation in orange; however, 85Y a synthetic ligand only reduces the inhibition of TRPA1 but not TRPV1 receptors in blue. Total number of neurons (n)=135-145; p≤0.05.
as §1, with “In a third model, mice were sensitized to the chemical compound toluene-2,4-diisocyanate (TDI). TDI is an industrial chemical which causes hypersensitive skin lesions and itching in exposed humans and animals. The physiological response to TDI is complex involving type 2 T lymphocytes, cytokines, mast cells, and neurons.” left out
In vitro DRG neuron responses. […] Neurons were stimulated with mustard (allyl isothiocyanate) (A) an agonist for the receptor TRPA-1 or capsaicin (B) an agonist for the receptor TRPV-1 and calcium responses were measured in individual neurons by fluorescence microscopy. […]

[4] = TDI-induced ear swelling; format: in vivo, mouse
From the text: as §1
A15 and TDI induced hypersensitivity. Mice were sensitized to toluene-2,4-diisocyanate (TDI) via abdominal application. Subsequently, a hypersensitive response was induced in the ear by direct application of TDI and ear thickness measured as a sign of inflammation.

T1 sequence (Q704Y3 whole entry): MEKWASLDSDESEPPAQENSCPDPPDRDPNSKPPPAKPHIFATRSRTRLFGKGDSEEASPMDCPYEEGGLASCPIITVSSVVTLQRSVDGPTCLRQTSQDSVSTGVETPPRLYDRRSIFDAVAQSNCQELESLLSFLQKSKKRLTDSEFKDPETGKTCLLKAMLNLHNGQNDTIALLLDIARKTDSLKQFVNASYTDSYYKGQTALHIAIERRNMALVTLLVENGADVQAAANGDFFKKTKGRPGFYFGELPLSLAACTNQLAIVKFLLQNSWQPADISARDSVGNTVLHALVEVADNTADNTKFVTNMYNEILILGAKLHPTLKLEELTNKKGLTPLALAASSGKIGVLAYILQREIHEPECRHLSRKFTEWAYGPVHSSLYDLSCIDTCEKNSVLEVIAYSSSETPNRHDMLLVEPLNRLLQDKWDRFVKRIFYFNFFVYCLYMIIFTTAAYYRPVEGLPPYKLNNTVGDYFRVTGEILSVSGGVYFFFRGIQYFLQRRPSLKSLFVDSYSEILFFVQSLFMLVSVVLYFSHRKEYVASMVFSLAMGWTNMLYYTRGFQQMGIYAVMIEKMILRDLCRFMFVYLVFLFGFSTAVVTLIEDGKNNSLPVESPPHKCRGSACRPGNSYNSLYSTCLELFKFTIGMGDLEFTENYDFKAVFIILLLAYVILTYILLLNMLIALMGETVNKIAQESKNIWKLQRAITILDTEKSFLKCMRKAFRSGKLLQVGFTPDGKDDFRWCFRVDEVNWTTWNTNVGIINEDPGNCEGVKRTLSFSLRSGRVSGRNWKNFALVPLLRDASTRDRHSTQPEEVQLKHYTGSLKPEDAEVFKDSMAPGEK

Q: Which calcium response ([1]; RBL-2H3 cells treated with IgE anti-DNP and DNP-BSA) does the source give for CCCCCCC/C=C/C=C/C(=O)NCC(C)C [A15, (2E,4E)-N-Isobutyldodeca-2,4-dienamide] here?
A: blocked the calcium response

Q: What about the inhibition at 100 µM ([1]; Rattus norvegicus, 1 min, A23187-treated RBL-2H3 cells, 100 μM, 1 min post-stimulation, read-out: inhibition of rise in intracellular calcium) of the same compound?
A: 83.2%

Q: What about the “constitutive fluorescence in unstimulated cells, compared to vehicle” value ([1]; unstimulated RBL-2H3 cells, 100 μM, pixel intensity, n=5 fields) of the same compound?
A: did not cause a significant change in the level of constitutive fluorescence

Q: What about the “paw withdrawal latency to cold (dry ice)” value [2] of the same compound?
A: increased withdrawal latency

Q: And the “paw withdrawal latency to heat (Hargreave's)” value [2]?
A: increased withdrawal latency

Q: What about the “touch latency (von-Frey)” value [2] of the same compound?
A: did not affect touch latency

Q: What about the “DRG neuron calcium response to capsaicin (TRPV1 agonist)” value [3] of the same compound?
A: inhibited

Q: What about the “TDI ear swelling (ear thickness)” value ([4]; 0.1%, first experiment (FIG. 13A)) of the same compound?
A: significant inhibitory effect

Q: What about the “TDI ear swelling (ear thickness)” value ([4]; 0.1%, repeated experiment (FIG. 13B)) of the same compound?
A: neither A15 nor YM8-85 at 0.1% produced significant inhibition

Q: What about the “TDI ear swelling (ear thickness)” value ([4]; 1%, first experiment (FIG. 13A)) of the same compound?
A: significant responses were not seen
